Measurements reported in publication PMC6980356 (Bioorganic & medicinal chemistry letters, 2014).

Columns and labels:
hTRPV1 [1] = target: T1, hTRPV1 (Homo sapiens, UniProt Q8NER1); assay: FLIPR inhibition of TRPV1 activation by capsaicin; type: cell-based; conditions: for antagonism toward capsaicin (in words): capsaicin 100 nM, hTRPV1 in CHO cells
hTRPV1 [2] = target: T1, hTRPV1; assay: hTRPV1 antagonism toward pH activation; type: cell-based; conditions: activator pH
hTRPV1 [3] = target: T1, hTRPV1; assay: hTRPV1 antagonism toward heat; type: cell-based
hTRPV1 [4] = target: T1, hTRPV1; assay: hTRPV1 antagonism toward NADA activation; type: cell-based; conditions: activator NADA
[5] = system: CCI-induced cold allodynia; assay: Mouse chronic constriction injury; type: in vivo; conditions: mouse CCI model, po

T1 sequence (Q8NER1 whole entry): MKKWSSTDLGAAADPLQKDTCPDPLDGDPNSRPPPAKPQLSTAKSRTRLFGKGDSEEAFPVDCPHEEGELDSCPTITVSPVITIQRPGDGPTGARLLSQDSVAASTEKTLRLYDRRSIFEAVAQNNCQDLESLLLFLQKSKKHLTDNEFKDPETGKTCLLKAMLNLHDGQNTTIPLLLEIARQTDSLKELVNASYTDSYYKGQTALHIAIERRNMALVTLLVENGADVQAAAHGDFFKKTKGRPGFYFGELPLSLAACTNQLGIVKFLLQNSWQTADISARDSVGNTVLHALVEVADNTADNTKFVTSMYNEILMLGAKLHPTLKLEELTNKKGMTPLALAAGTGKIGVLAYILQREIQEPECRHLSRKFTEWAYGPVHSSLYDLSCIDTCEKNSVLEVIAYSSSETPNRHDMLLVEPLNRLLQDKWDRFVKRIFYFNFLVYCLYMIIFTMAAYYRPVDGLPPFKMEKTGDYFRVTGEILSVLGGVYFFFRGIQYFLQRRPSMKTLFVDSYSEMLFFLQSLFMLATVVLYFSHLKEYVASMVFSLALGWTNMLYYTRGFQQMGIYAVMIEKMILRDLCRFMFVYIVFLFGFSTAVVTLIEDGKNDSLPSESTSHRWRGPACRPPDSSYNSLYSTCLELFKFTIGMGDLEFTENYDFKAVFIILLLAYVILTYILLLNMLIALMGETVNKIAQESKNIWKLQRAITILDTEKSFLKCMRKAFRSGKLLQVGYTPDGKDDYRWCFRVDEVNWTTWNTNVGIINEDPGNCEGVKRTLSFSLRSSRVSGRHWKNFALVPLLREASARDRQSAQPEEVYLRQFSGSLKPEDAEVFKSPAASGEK

In the case of `CC(C(=O)NCc1ccc(C(F)(F)F)nc1-c1ccccc1)c1ccc(NS(C)(=O)=O)c(F)c1` (stereo not drawn) [Compound 8], the “fold less potent than the 2-cyclohexyl derivative” value (hTRPV1 [1]; Ki(CAP) relative to 2-cyclohexyl derivative) is reported as “ca. 10 fold” and the “antagonism toward capsaicin (in words)” value (hTRPV1 [1]) is reported as “reasonable antagonism”.
In the case of `CC(C(=O)NCc1ccc(C(F)(F)F)nc1-c1ccc(F)cc1)c1ccc(NS(C)(=O)=O)c(F)c1` (stereo not drawn) [Compound 9], the “fold increase in potency compared to 8” value (hTRPV1 [1]; Ki(CAP) relative to parent 8) is reported as 16 fold, the “antagonism toward capsaicin (in words)” value (hTRPV1 [1]) is reported as “excellent antagonism” and the “antagonism toward pH (in words)” value (hTRPV1 [2]) is reported as “moderate antagonism”. The IC50 (hTRPV1 [3]) was 25.9 nM, the “antagonism toward heat (in words)” value (hTRPV1 [3]; activator heat) was “moderate antagonism” and the “antagonism toward NADA (in words)” value (hTRPV1 [4]) was “excellent antagonism”. For the same molecule, the “anti-allodynic efficacy (limited efficacy)” value [5] was 53 % MPE.
`CC(C(=O)NCc1ccc(C(F)(F)F)nc1-c1cccc(F)c1)c1ccc(NS(C)(=O)=O)c(F)c1` (stereo not drawn) [Compound 10] was tested, and the “fold increase in potency compared to 8” value (hTRPV1 [1]; Ki(CAP) relative to parent 8) was 5 fold.
`CC(C(=O)NCc1ccc(C(F)(F)F)nc1-c1ccccc1F)c1ccc(NS(C)(=O)=O)c(F)c1` (stereo not drawn) [Compound 11] was tested, and the “fold reduction in potency compared to 8” value (hTRPV1 [1]; Ki(CAP) relative to parent 8) was 10 fold.
For `CC(C(=O)NCc1ccc(C(F)(F)F)nc1-c1ccc(Cl)cc1)c1ccc(NS(C)(=O)=O)c(F)c1` (stereo not drawn) [Compound 12], the “fold increase in potency compared to 8” value (hTRPV1 [1]; Ki(CAP) relative to parent 8) was 9 fold.
For `CC(C(=O)NCc1ccc(C(F)(F)F)nc1-c1cccc(Cl)c1)c1ccc(NS(C)(=O)=O)c(F)c1` (stereo not drawn) [Compound 13], the “fold increase in potency compared to 8” value (hTRPV1 [1]; Ki(CAP) relative to parent 8) was 13 fold.
With `COc1ccc(-c2nc(C(F)(F)F)ccc2CNC(=O)C(C)c2ccc(NS(C)(=O)=O)c(F)c2)cc1` (stereo not drawn) [Compound 14] the “fold increase in potency compared to 8” value (hTRPV1 [1]; Ki(CAP) relative to parent 8) was 6 fold.
`CC(C(=O)NCc1ccc(C(F)(F)F)nc1-c1ccc(N(C)C)cc1)c1ccc(NS(C)(=O)=O)c(F)c1` (stereo not drawn) [Compound 15] was tested, and the “fold increase in potency compared to 8” value (hTRPV1 [1]; Ki(CAP) relative to parent 8) was 2 fold.
`CC(C(=O)NCc1ccc(C(F)(F)F)nc1-c1ccc(C(C)(C)C)cc1)c1ccc(NS(C)(=O)=O)c(F)c1` (stereo not drawn) [Compound 16] was tested, and the “fold increase in potency compared to 8” value (hTRPV1 [1]; Ki(CAP) relative to parent 8) was 13 fold.
With `CC(C(=O)NCc1ccc(C(F)(F)F)nc1-c1cccc(NS(C)(=O)=O)c1)c1ccc(NS(C)(=O)=O)c(F)c1` (stereo not drawn) [Compound 17] the “antagonism toward capsaicin (in words)” value (hTRPV1 [1]) was “lack of activity”.
For `CC(C(=O)NCc1ccc(C(F)(F)F)nc1-c1ccc(F)c(Cl)c1)c1ccc(NS(C)(=O)=O)c(F)c1` (stereo not drawn) [Compound 18], the “fold increase in potency compared to 8” value (hTRPV1 [1]; Ki(CAP) relative to parent 8) was “ca. 30 fold”.
With `Cc1cc(-c2nc(C(F)(F)F)ccc2CNC(=O)C(C)c2ccc(NS(C)(=O)=O)c(F)c2)ccc1F` (stereo not drawn) [Compound 19] the “antagonism toward capsaicin (in words)” value (hTRPV1 [1]) was “retained high potencies”.
In the case of `CC(C(=O)NCc1ccc(C(F)(F)F)nc1-c1ccc(Cl)c(Cl)c1)c1ccc(NS(C)(=O)=O)c(F)c1` (stereo not drawn) [Compound 20], the “antagonism toward capsaicin (in words)” value (hTRPV1 [1]) is reported as “retained high potencies”.
For `CC(C(=O)NCc1ccc(C(F)(F)F)nc1-c1cccs1)c1ccc(NS(C)(=O)=O)c(F)c1` (stereo not drawn) [Compound 26], the “fold increase in potency compared to 8” value (hTRPV1 [1]; Ki(CAP) relative to parent 8) was “ca. 20 fold”.
For `CC(C(=O)NCc1ccc(C(F)(F)F)nc1-c1ccsc1)c1ccc(NS(C)(=O)=O)c(F)c1` (stereo not drawn) [Compound 27], the “antagonism toward capsaicin (in words)” value (hTRPV1 [1]) was “potent antagonist”.
With `CC(C(=O)NCc1ccc(C(F)(F)F)nc1-c1ccco1)c1ccc(NS(C)(=O)=O)c(F)c1` (stereo not drawn) [Compound 28] the “antagonism toward capsaicin (in words)” value (hTRPV1 [1]) was “higher potency than phenyl derivative 8”.
`CC(C(=O)NCc1ccc(C(F)(F)F)nc1-c1ccoc1)c1ccc(NS(C)(=O)=O)c(F)c1` (stereo not drawn) [Compound 29] was tested, and the “antagonism toward capsaicin (in words)” value (hTRPV1 [1]) was “higher potency than phenyl derivative 8”.
In the case of `CC(C(=O)NCc1ccc(C(F)(F)F)nc1-n1ccnc1)c1ccc(NS(C)(=O)=O)c(F)c1` (stereo not drawn) [Compound 30], the “antagonism toward capsaicin (in words)” value (hTRPV1 [1]) is reported as “weak antagonist”.
For `CC(C(=O)NCc1ccc(C(F)(F)F)nc1Cc1ccccc1)c1ccc(NS(C)(=O)=O)c(F)c1` (stereo not drawn) [Compound 35], the “antagonism toward capsaicin (in words)” value (hTRPV1 [1]) was “weak antagonist”.
For `CC(C(=O)NCc1ccc(C(F)(F)F)nc1CCc1ccccc1)c1ccc(NS(C)(=O)=O)c(F)c1` (stereo not drawn) [Compound 36], the “antagonism toward capsaicin (in words)” value (hTRPV1 [1]) was “dramatic increase in antagonism”.
